Laboratory results published in US8501977B2, “Platinum complex and pharmaceutical composition containing the same” (Unitech Co., Ltd., priority 2008, dated 2013).
Entries after “also recorded” stand apart in the source; their conditions may differ.

Columns and labels:
[1] = tested on: A549 (human lung cancer cell); assay: MTS cell proliferation test, A549 (Embodiment 8); assay type: cell-based
Description: (§1) Respectively, the S medicine test solution was prepared by dissolving the ((S,S,S) cis,cis-spiro[4,4]nonane-1,6-diamine)oxalatoplatinum(II) complex (compound 2; hereinafter, it is described as S medicine) into the dimethylsulfoxide (DMSO) with the concentration of 10 mg/ml and the R medicine test solution was prepared by dissolving the ((R,R,R)cis,cis-spiro[4,4]nonane-1,6-diamine) oxalatoplatinum(II) complex (compound 3; hereinafter, it is described as R medicine) into the dimethylsulfoxide (DMSO) with the concentration of 10 mg/ml.
(§2) The test was performed by using A549 (human lung cancer cell), LU65A (human lung cancer cell), RERF-LC-MA (human lung cancer cell), LU99 (human lung cancer cell), H460 (human lung cancer cell), HCT116 (human colon cancer cell), HT-29 (human colon cancer cell), MKN-45 (human gastric cancer cell), MKN-1 (human gastric cancer cell), U937 (human lymphoma cell), KP-1N (human pancreas cancer cell) and B2452 (human mesotheliama cell) as the cancer cell.
(§3) These cells were suspended in the each culture medium that the serum of 10% was added, and were dispensed in 96-well plate. And then, these were cultured in 5% CO2 at 37 degrees centigrade during a night. Next day, the S medicine test solution and the R medicine test solution were prepared in the culture medium to the various concentrations (5, 10, 20 μg/ml), and were dispensed into the plates that the cells were set preliminarily. And further, these were cultured in 5% CO2 at 37 degrees centigrade for three days.
(§4) The cell proliferation after the medicine addition was measured on the 3rd day from the 1st day after the medicine addition by the MTS method (kit for cell proliferation test manufactured by Promega Company).
(§5) The inhibition rate (%) of the cell proliferation was obtained from the measured MTS value by the following formula. Inhibition rate(%)=(1-MTS value of medicine addition group/MTS value of medicine non-addition group)×100
(§6) Because the value which was obtained by the above-mentioned formula represents the inhibition rate of the cell proliferation, the higher the numerical value is, the higher the medicine effect is. It is desired that the one whose value is 50% or more has the medicine effect.

[2] = tested on: LU65A (human lung cancer cell); assay: MTS cell proliferation test, LU65A (Embodiment 8); assay type: cell-based
Description: as §1, §2, §3, §4, §5, §6

[3] = tested on: RERF-LC-MA (human lung cancer cell); assay: MTS cell proliferation test, RERF-LC-MA (Embodiment 8); assay type: cell-based
Description: as §1, §2, §3, §4, §5, §6

[4] = tested on: LU99 (human lung cancer cell); assay: MTS cell proliferation test, LU99 (Embodiment 8); assay type: cell-based
Description: as §1, §2, §3, §4, §5, §6

[5] = tested on: H460 (human lung cancer cell); assay: MTS cell proliferation test, H460 (Embodiment 8); assay type: cell-based
Description: as §1, §2, §3, §4, §5, §6

[6] = tested on: HCT116 (human colon cancer cell); assay: MTS cell proliferation test, HCT116 (Embodiment 8); assay type: cell-based
Description: as §1, §2, §3, §4, §5, §6

[7] = tested on: HT-29 (human colon cancer cell); assay: MTS cell proliferation test, HT-29 (Embodiment 8); assay type: cell-based
Description: as §1, §2, §3, §4, §5, §6

[8] = tested on: MKN-45 (human gastric cancer cell); assay: MTS cell proliferation test, MKN-45 (Embodiment 8); assay type: cell-based
Description: as §1, §2, §3, §4, §5, §6

[9] = tested on: MKN-1 (human gastric cancer cell); assay: MTS cell proliferation test, MKN-1 (Embodiment 8); assay type: cell-based
Description: as §1, §2, §3, §4, §5, §6

[10] = tested on: U937 (human lymphoma cell); assay: MTS cell proliferation test, U937 (Embodiment 8); assay type: cell-based
Description: as §1, §2, §3, §4, §5, §6

[11] = tested on: KP-1N (human pancreas cancer cell); assay: MTS cell proliferation test, KP-1N (Embodiment 8); assay type: cell-based
Description: as §1, §2, §3, §4, §5, §6

[12] = tested on: H2452 cell (human mesothelicana cell); assay: MTS cell proliferation test, H2452 (Embodiment 8); assay type: cell-based
Description: as §1, §2, §3, §4, §5, §6

[13] = tested on: tumor cells; assay: MTS cell proliferation test, all cancer cells of Embodiment 8; assay type: cell-based, human; conditions: summary of Table 2 in words
Description: as §1
The test was performed by using A549 (human lung cancer cell), LU65A (human lung cancer cell), RERF-LC-MA (human lung cancer cell), LU99 (human lung cancer cell), H460 (human lung cancer cell), HCT116 (human colon cancer cell), HT-29 (human colon cancer cell), MKN-45 (human gastric cancer cell), MKN-1 (human gastric cancer cell), U937 (human lymphoma cell), KP-1N (human pancreas cancer cell) and B2452 (human mesotheliama cell) as the cancer cell. […]
as §4
The inhibition rate (%) of the cell proliferation was obtained from the measured MTS value by the following formula. […]

[14] = tested on: U937 (human lymphoma cell); assay: MTS cell proliferation test, U937 (Embodiment 7); assay type: cell-based
Description: The test solution was prepared by dissolving the (compound 1) into the dimethylsulfoxide ([…]) with the concentration of 8 mg/ml.
The test was performed by using the U937 (human lymphoma cell) as the cancer cell and using the HEK293 (human fetus kidney cell) as the normal cell.
These cells were suspended in the each culture medium that the serum of 10% was added, and were dispensed in 96-well plate. And then, these were cultured in 5% CO2 at 37 degrees centigrade during a night. Next day, the test solution was prepared in the culture medium to the various concentrations (0, 4, 8, 16 μg/ml), and was dispensed into the plate that the cells were set preliminarily. And further, these were cultured in 5% CO2 at 37 degrees centigrade for three days.
The cell proliferation after the medicine addition was measured on the 3rd day from the 1st day after the medicine addition by the […] (Kit for cell proliferation test manufactured by Promega Company).
as §5
Because the value which was obtained by the above-mentioned formula represents the inhibition rate of the cell proliferation, the higher the numerionl value is, the higher the medicine effect is. It is deemed that the one whose value is 50% or more has the medicine effect.

| SMILES | Inhibition rate of cell proliferation after 3 days from medicine addition (%) ([1]; A549, 10 μg/ml) | Inhibition rate of cell proliferation after 3 days from medicine addition (%) ([1]; A549, 20 μg/ml) | Inhibition rate of cell proliferation after 3 days from medicine addition (%) ([2]; 10 μg/ml) | Inhibition rate of cell proliferation after 3 days from medicine addition (%) ([2]; 20 μg/ml) | Inhibition rate of cell proliferation after 3 days from medicine addition (%) ([3]; 10 μg/ml) | Inhibition rate of cell proliferation after 3 days from medicine addition (%) ([3]; 20 μg/ml) | Inhibition rate of cell proliferation after 3 days from medicine addition (%) ([4]; LU99, 10 μg/ml) | Inhibition rate of cell proliferation after 3 days from medicine addition (%) ([4]; LU99, 20 μg/ml) | Inhibition rate of cell proliferation after 3 days from medicine addition (%) ([5]; H460, 10 μg/ml) | Inhibition rate of cell proliferation after 3 days from medicine addition (%) ([5]; H460, 20 μg/ml) | Inhibition rate of cell proliferation after 3 days from medicine addition (%) ([6]; HCT116, 10 μg/ml) | Inhibition rate of cell proliferation after 3 days from medicine addition (%) ([6]; HCT116, 20 μg/ml) | Inhibition rate of cell proliferation after 3 days from medicine addition (%) ([7]; HT-29, 10 μg/ml) | Inhibition rate of cell proliferation after 3 days from medicine addition (%) ([7]; HT-29, 20 μg/ml) | Inhibition rate of cell proliferation after 3 days from medicine addition (%) ([8]; MKN-45, 10 μg/ml) | Inhibition rate of cell proliferation after 3 days from medicine addition (%) ([8]; MKN-45, 20 μg/ml) | Inhibition rate of cell proliferation after 3 days from medicine addition (%) ([9]; MKN-1, 10 μg/ml) | Inhibition rate of cell proliferation after 3 days from medicine addition (%) ([9]; MKN-1, 20 μg/ml) | Inhibition rate of cell proliferation after 3 days from medicine addition (%) ([10]; U937, 10 μg/ml) | Inhibition rate of cell proliferation after 3 days from medicine addition (%) ([10]; U937, 20 μg/ml) | other results |
| --- | --- | --- | --- | --- | --- | --- | --- | --- | --- | --- | --- | --- | --- | --- | --- | --- | --- | --- | --- | --- | --- |
| NC1CCCC12CCCC2N.O=C1[O][Pt][O]C1=O [R medicine, ((R,R,R)cis,cis-spiro[4,4]nonane-1,6-diamine) oxalatoplatinum(II) complex] | ◯ (◯: 51~75%) | ◯ (◯: 51~75%) | ⊚ (⊚: 76~100%) | ⊚ (⊚: 76~100%) | ◯ (◯: 51~75%) | ◯ (◯: 51~75%) | ⊚ (⊚: 76~100%) | ⊚ (⊚: 76~100%) | ⊚ (⊚: 76~100%) | ⊚ (⊚: 76~100%) | ⊚ (⊚: 76~100%) | ⊚ (⊚: 76~100%) | ◯ (◯: 51~75%) | ⊚ (⊚: 76~100%) | ⊚ (⊚: 76~100%) | ⊚ (⊚: 76~100%) | ⊚ (⊚: 76~100%) | ⊚ (⊚: 76~100%) | ⊚ (⊚: 76~100%) | ⊚ (⊚: 76~100%) | Inhibition rate of cell proliferation after 3 days from medicine addition (%) ([1]; A549, 5 μg/ml): Δ (Δ: 26~50%); Inhibition rate of cell proliferation after 3 days from medicine addition (%) ([2]; 5 μg/ml): ⊚ (⊚: 76~100%); Inhibition rate of cell proliferation after 3 days from medicine addition (%) ([3]; 5 μg/ml): Δ (Δ: 26~50%); Inhibition rate of cell proliferation after 3 days from medicine addition (%) ([4]; LU99, 5 μg/ml): ⊚ (⊚: 76~100%); Inhibition rate of cell proliferation after 3 days from medicine addition (%) ([5]; H460, 5 μg/ml): ◯ (◯: 51~75%); Inhibition rate of cell proliferation after 3 days from medicine addition (%) ([6]; HCT116, 5 μg/ml): ◯ (◯: 51~75%); Inhibition rate of cell proliferation after 3 days from medicine addition (%) ([7]; HT-29, 5 μg/ml): ◯ (◯: 51~75%); Inhibition rate of cell proliferation after 3 days from medicine addition (%) ([8]; MKN-45, 5 μg/ml): ⊚ (⊚: 76~100%); Inhibition rate of cell proliferation after 3 days from medicine addition (%) ([9]; MKN-1, 5 μg/ml): ⊚ (⊚: 76~100%); Inhibition rate of cell proliferation after 3 days from medicine addition (%) ([10]; U937, 5 μg/ml): ⊚ (⊚: 76~100%); Inhibition rate of cell proliferation after 3 days from medicine addition (%) ([11]; 5 μg/ml): ◯ (◯: 51~75%); Inhibition rate of cell proliferation after 3 days from medicine addition (%) ([11]; 10 μg/ml): ⊚ (⊚: 76~100%); Inhibition rate of cell proliferation after 3 days from medicine addition (%) ([11]; 20 μg/ml): ⊚ (⊚: 76~100%); Inhibition rate of cell proliferation after 3 days from medicine addition (%) ([12]; H2452, 5 μg/ml): Δ (Δ: 26~50%); Inhibition rate of cell proliferation after 3 days from medicine addition (%) ([12]; H2452, 10 μg/ml): ◯ (◯: 51~75%); Inhibition rate of cell proliferation after 3 days from medicine addition (%) ([12]; H2452, 20 μg/ml): ◯ (◯: 51~75%); medicine effect for the many tumor cells [13]: high medicine effect compared with the oxaliplatin; also recorded: higher in the effect |
| O=C1[O][Pt]2([NH][C@@H]3CCCC[C@H]3[NH]2)[O]C1=O [oxaliplatin, reference compound] | X (X: 0~25%) | Δ (Δ: 26~50%) | Δ (Δ: 26~50%) | ◯ (◯: 51~75%) | X (X: 0~25%) | X (X: 0~25%) | ◯ (◯: 51~75%) | ◯ (◯: 51~75%) | Δ (Δ: 26~50%) | Δ (Δ: 26~50%) | ◯ (◯: 51~75%) | ◯ (◯: 51~75%) | Δ (Δ: 26~50%) | Δ (Δ: 26~50%) | ⊚ (⊚: 76~100%) | ⊚ (⊚: 76~100%) | ◯ (◯: 51~75%) | ⊚ (⊚: 76~100%) | ⊚ (⊚: 76~100%) | ⊚ (⊚: 76~100%) | Inhibition rate of cell proliferation for 1st to 3rd day from medicine addition (%) ([14]; U937, 4 μg/ml, 1st day): −5%; Inhibition rate of cell proliferation for 1st to 3rd day from medicine addition (%) ([14]; U937, 4 μg/ml, 2nd day): −26%; Inhibition rate of cell proliferation for 1st to 3rd day from medicine addition (%) ([14]; U937, 4 μg/ml, 3rd day): 12%; Inhibition rate of cell proliferation for 1st to 3rd day from medicine addition (%) ([14]; U937, 8 μg/ml, 1st day): −1%; Inhibition rate of cell proliferation for 1st to 3rd day from medicine addition (%) ([14]; U937, 8 μg/ml, 2nd day): −5%; Inhibition rate of cell proliferation for 1st to 3rd day from medicine addition (%) ([14]; U937, 8 μg/ml, 3rd day): 37%; Inhibition rate of cell proliferation for 1st to 3rd day from medicine addition (%) ([14]; U937, 16 μg/ml, 1st day): 0%; Inhibition rate of cell proliferation for 1st to 3rd day from medicine addition (%) ([14]; U937, 16 μg/ml, 2nd day): 30%; Inhibition rate of cell proliferation for 1st to 3rd day from medicine addition (%) ([14]; U937, 16 μg/ml, 3rd day): 73%; medicine effect in the cancer cell (U937) ([14]; U937, summary of Table 1 in words): medicine effect was also recognized; Inhibition rate of cell proliferation after 3 days from medicine addition (%) ([11]; 10 μg/ml): Δ (Δ: 26~50%); Inhibition rate of cell proliferation after 3 days from medicine addition (%) ([11]; 20 μg/ml): ◯ (◯: 51~75%); Inhibition rate of cell proliferation after 3 days from medicine addition (%) ([12]; H2452, 10 μg/ml): Δ (Δ: 26~50%); Inhibition rate of cell proliferation after 3 days from medicine addition (%) ([12]; H2452, 20 μg/ml): Δ (Δ: 26~50%) |
